Results as given in ChEMBL document CHEMBL1201862, “PubChem BioAssay data set” (2004).
Activity calls are given as the source filed them. Cut-off read from the data, not from the text of the source, for most assays here: actives have a measured IC50 and inactives only a lower limit.

Assays:
Cytochrome P450 2C19 = Cytochrome P450 2C19 (Homo sapiens, UniProt P33261); test: qHTS Assay for Inhibitors and Substrates of Cytochrome P450 2C19. [Related pubchem assays: 410 ]; format: ADME; conditions: read-out: Potency
Sequence of Cytochrome P450 2C19 (P33261 whole entry): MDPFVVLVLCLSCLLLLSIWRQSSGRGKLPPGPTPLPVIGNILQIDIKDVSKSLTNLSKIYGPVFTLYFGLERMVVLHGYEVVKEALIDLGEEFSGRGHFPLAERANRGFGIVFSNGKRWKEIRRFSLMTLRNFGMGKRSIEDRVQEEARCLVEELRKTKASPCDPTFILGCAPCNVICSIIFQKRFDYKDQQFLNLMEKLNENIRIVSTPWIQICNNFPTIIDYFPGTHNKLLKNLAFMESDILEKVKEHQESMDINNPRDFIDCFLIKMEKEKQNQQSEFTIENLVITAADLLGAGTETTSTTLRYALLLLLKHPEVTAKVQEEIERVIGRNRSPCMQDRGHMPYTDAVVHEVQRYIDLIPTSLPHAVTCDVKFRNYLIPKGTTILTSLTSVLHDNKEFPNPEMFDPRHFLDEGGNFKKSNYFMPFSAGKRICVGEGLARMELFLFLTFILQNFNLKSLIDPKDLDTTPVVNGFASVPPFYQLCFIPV

Estrogen receptor beta = Estrogen receptor beta (Homo sapiens, UniProt Q92731);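 note: recombinant ER-beta bound to coactivator SRC1 peptide in presence of estradiol agonist; inhibitors block coactivator peptide binding and lower the FRET signal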
Sequence of Estrogen receptor beta (Q92731 whole entry): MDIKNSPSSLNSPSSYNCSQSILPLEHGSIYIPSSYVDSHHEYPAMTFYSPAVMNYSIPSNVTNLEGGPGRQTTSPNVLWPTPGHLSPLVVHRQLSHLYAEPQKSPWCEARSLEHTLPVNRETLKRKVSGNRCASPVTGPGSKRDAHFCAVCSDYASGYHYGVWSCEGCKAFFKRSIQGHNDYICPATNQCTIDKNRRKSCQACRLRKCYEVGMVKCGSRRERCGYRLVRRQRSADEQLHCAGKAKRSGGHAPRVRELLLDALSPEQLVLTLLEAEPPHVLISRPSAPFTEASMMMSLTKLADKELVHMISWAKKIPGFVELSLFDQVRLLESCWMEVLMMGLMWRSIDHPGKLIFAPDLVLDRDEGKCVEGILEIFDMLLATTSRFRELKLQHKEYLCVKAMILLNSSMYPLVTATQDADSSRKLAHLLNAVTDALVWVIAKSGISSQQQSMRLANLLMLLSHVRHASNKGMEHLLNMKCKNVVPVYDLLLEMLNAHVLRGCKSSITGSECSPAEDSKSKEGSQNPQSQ

[1] = biological target: Sphingosine 1-phosphate receptor 2 (Homo sapiens, UniProt O95136); test: Dose Response Cell Based Assay for Agonists of the S1P2 Receptor. [Related pubchem assays: 729, 736, 843 ]; format: functional
Sequence of Sphingosine 1-phosphate receptor 2 (O95136 whole entry): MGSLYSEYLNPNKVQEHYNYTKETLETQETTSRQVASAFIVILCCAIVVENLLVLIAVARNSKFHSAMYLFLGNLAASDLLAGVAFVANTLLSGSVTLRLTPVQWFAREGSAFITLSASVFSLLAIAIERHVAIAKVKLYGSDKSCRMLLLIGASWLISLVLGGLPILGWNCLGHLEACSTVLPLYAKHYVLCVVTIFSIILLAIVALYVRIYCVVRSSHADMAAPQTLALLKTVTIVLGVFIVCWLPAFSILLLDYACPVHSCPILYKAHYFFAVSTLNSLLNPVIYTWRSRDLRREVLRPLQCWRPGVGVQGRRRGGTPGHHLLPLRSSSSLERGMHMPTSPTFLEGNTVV

[2] = biological target: Glyceraldehyde-3-phosphate dehydrogenase (Homo sapiens, UniProt P04406)
Sequence of Glyceraldehyde-3-phosphate dehydrogenase (P04406 whole entry): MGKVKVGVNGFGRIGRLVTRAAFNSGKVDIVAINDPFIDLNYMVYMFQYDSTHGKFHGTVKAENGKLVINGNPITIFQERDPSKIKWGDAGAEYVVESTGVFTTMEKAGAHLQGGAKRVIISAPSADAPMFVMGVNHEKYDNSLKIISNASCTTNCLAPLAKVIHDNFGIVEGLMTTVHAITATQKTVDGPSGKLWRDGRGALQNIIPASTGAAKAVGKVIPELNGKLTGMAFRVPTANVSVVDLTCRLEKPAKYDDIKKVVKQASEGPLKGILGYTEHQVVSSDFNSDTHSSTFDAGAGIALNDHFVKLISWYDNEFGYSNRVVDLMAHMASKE

Bcl-2-related protein A1 [3] = biological target: T1, Bcl-2-related protein A1 (Mus musculus, UniProt Q07440); test: small-molecule antagonists of Bfl-1/BH3 interaction – biochemical, TR-FRET, mouse Bfl-1, confirmation (AID 621);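 note: TR-FRET binding of GST-Bfl-1 to FITC-labelled Bid peptide via terbium antibody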
T1 sequence (Q07440 whole entry): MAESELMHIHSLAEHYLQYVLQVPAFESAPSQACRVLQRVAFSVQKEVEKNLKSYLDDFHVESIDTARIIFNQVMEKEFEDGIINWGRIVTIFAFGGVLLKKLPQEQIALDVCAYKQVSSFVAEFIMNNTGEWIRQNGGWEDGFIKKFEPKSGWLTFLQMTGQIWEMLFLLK

Bcl-2-related protein A1 [4] = biological target: T1, Bcl-2-related protein A1; test: Bfl-1 binding inhibitors, SAR follow-up, biochemical, fluorescence polarization (AID 1070)
[5] = biological target: Bifunctional protein GlmU (Mycobacterium tuberculosis, UniProt P9WMN3); test: Inhibitors of Mycobacterial Glucosamine-1-phosphate acetyl transferase (GlmU). Secondary screen.; design: species or system Mycobacterium tuberculosis H37Rv
Sequence of Bifunctional protein GlmU (P9WMN3 whole entry): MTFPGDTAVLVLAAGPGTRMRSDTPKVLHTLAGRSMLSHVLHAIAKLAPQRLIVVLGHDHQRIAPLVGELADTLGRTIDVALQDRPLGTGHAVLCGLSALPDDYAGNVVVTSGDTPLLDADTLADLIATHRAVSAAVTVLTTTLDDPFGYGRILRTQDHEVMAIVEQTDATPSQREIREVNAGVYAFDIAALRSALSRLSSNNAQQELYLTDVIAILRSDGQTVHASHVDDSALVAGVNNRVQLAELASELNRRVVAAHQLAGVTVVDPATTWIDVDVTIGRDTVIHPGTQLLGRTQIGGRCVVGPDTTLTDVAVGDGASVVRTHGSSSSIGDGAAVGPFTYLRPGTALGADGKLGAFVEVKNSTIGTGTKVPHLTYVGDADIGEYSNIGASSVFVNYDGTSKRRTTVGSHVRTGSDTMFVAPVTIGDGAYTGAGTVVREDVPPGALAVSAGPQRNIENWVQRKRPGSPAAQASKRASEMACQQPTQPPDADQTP

[6] = biological target: Mitogen-activated protein kinase 10 (Homo sapiens, UniProt P53779); test: Dose response biochemical screening assay for inhibitors of c-Jun N-Terminal Kinase 3 (JNK3). [Related pubchem assays: 746 ]
Sequence of Mitogen-activated protein kinase 10 (P53779 whole entry): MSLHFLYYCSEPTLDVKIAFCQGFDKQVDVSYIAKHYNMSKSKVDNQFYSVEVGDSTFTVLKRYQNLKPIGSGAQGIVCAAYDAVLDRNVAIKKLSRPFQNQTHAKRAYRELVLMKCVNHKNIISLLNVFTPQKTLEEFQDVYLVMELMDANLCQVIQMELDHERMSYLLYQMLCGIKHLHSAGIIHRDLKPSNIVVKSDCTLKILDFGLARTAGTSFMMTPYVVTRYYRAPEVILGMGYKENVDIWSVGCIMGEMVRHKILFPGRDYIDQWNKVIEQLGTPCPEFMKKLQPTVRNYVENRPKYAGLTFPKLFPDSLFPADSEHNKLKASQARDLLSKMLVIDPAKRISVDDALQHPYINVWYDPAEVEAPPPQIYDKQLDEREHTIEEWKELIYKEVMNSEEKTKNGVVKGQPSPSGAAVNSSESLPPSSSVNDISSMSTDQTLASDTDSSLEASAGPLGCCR

Caspase-3 = biological target: T2, Caspase-3 (Homo sapiens, UniProt P42574); format: functional;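 note: Dose-response selectivity test against caspase-3 for candidate inhibitors of sentrin-specific proteases (SENPs)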
T2 sequence (P42574 whole entry): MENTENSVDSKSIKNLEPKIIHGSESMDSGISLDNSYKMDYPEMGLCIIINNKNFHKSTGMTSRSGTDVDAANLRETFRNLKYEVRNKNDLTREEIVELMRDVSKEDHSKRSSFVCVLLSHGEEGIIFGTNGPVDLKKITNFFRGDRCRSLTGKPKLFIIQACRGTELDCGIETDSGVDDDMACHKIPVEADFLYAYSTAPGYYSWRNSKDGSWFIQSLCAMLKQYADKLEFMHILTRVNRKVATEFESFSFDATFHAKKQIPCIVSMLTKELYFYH

[7] = biological target: T3, Sentrin-specific protease 7 (Homo sapiens, UniProt Q9BQF6); format: functional;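 note: Luminescence-based dose-response confirmation of ultra-high-throughput screening hits, measuring inhibition of SENP7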
T3 sequence (Q9BQF6 whole entry): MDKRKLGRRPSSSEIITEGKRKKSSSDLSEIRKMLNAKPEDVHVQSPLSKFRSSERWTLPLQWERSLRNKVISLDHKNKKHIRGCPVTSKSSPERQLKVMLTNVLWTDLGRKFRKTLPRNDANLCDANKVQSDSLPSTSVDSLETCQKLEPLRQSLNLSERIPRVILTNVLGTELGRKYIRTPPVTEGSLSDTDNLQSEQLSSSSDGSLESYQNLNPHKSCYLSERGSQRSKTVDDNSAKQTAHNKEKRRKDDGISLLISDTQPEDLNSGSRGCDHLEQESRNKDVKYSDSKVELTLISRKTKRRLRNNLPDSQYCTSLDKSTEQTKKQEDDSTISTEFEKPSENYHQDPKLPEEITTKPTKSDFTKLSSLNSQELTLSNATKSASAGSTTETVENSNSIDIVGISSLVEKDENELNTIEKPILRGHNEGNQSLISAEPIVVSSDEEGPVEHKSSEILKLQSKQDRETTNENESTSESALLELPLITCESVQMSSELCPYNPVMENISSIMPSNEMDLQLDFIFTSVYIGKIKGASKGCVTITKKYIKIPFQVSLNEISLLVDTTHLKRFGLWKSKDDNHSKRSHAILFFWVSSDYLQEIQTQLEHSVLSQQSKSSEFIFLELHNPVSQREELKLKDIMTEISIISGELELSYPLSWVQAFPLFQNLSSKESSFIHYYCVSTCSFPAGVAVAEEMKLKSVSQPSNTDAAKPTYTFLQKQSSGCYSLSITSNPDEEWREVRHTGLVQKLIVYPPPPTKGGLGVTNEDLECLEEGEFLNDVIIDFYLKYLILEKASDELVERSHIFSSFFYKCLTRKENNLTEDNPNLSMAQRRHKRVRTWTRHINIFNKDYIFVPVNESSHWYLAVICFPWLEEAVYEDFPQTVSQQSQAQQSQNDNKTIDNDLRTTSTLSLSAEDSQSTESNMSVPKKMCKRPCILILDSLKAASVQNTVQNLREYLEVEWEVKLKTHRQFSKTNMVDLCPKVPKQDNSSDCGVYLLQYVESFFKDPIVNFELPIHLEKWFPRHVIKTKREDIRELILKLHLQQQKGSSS

[8] = biological target: T4, Sentrin-specific protease 6 (Homo sapiens, UniProt Q9GZR1); format: functional;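 note: Luminescence-based dose-response confirmatory assay of SENP6 inhibition, following up an ultra-high-throughput screen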
T4 sequence (Q9GZR1 whole entry): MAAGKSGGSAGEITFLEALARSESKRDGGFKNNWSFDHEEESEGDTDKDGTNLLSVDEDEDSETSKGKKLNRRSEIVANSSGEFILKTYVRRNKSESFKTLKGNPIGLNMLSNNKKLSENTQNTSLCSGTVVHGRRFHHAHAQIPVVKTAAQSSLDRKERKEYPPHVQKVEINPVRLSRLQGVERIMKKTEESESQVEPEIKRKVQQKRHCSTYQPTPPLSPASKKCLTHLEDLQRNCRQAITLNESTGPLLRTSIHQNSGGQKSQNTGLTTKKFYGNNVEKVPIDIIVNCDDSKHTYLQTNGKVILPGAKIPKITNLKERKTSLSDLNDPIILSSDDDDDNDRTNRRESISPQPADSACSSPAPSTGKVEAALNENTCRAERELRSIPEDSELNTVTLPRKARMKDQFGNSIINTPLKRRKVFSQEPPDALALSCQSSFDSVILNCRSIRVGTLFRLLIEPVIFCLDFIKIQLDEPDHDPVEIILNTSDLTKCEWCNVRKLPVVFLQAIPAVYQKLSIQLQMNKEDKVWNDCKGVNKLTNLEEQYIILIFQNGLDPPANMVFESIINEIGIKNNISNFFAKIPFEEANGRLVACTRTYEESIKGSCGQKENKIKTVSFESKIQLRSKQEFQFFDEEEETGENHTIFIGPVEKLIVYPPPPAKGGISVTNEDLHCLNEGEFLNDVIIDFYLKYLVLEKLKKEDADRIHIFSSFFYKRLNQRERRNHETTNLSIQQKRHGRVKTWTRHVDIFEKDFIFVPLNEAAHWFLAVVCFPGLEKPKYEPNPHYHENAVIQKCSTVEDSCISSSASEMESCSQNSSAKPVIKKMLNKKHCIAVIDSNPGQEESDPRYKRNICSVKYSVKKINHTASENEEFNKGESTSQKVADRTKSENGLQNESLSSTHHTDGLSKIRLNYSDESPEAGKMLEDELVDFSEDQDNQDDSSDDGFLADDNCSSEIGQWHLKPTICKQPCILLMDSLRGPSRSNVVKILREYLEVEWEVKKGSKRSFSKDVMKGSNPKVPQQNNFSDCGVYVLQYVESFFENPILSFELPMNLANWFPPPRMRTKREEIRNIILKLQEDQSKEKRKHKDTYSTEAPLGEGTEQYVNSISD

[9] = biological target: T5, Sentrin-specific protease 8 (Homo sapiens, UniProt Q96LD8); format: functional;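 note: luminescence read-out of SENP8 inhibition, dose-response confirmation following an ultra-high-throughput screen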
T5 sequence (Q96LD8 whole entry): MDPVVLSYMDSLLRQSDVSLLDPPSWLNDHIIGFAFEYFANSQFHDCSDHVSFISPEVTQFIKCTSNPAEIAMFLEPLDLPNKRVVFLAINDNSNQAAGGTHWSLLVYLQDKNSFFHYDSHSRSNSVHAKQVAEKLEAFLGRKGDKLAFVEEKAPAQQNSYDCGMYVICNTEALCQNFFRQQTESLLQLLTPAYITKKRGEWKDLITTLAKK

SMILES: COc1cccc(NC(=O)/C=C\c2ccc(Cl)cc2)c1
- AC50 (Cytochrome P450 2C19): 3.98 µM (inconclusive)

SMILES: Cc1c(Cl)cccc1NC(=O)CC1SCCNC1=O (configuration not stated)
- IC50 (Estrogen receptor beta): > 50 µM (not active)

SMILES: COc1cc2c(cc1OC)C1=C(C#N)CC/C(=N\C(=O)c3ccc(Cl)cc3)N1CC2
- EC50 [1]: 1.61 µM (active)

SMILES: Cc1cccc(N2C(=O)C(Cl)=C(N3CCN(CCOCCO)CC3)C2=O)c1
- IC50 [2]: > 100 µM (not active)
- IC50 (Bcl-2-related protein A1 [3]): 6.43 µM (active)
- IC50 (Bcl-2-related protein A1 [4]): 4.46 µM (active)

SMILES: O=C(O)C1C2C=CC(CC2)C1C(=O)O (configuration not stated)
- IC50 [5]: 114 µM (active)

SMILES: C/C(=N\Cc1ccco1)c1c(C)nn(-c2nc3ccccc3s2)c1O
- IC50 [6]: > 93.1 µM (not active)
- IC50 (Caspase-3): 3.72 µM (active)
- IC50 [7]: 3.48 µM (active)
- IC50 [8]: 9.47 µM (active)
- IC50 [9]: 11.5 µM (active)
